This note sets out measurements from ChEMBL document CHEMBL2321667, “Imidazopyridine-Based Fatty Acid Synthase Inhibitors That Show Anti-HCV Activity and in Vivo Target Modulation” (ACS Med Chem Lett, 2013).

One series addresses Fatty acid synthase (Rattus norvegicus, UniProt P12785).
Series [1] in a line: in vitro. The following applies: human, huh-7.
The test system of the next series is Hepatitis C virus. Briefly: microbe, parasite or virus in culture. The conditions noted are these: genotype 1b, Huh-7, 72 h.
Series [2] is described as follows: in vitro. The conditions noted are these: plasma.
Series [3] in a line: in vitro. The following applies: dog, MDCK.

Sequence of Fatty acid synthase (P12785 whole entry): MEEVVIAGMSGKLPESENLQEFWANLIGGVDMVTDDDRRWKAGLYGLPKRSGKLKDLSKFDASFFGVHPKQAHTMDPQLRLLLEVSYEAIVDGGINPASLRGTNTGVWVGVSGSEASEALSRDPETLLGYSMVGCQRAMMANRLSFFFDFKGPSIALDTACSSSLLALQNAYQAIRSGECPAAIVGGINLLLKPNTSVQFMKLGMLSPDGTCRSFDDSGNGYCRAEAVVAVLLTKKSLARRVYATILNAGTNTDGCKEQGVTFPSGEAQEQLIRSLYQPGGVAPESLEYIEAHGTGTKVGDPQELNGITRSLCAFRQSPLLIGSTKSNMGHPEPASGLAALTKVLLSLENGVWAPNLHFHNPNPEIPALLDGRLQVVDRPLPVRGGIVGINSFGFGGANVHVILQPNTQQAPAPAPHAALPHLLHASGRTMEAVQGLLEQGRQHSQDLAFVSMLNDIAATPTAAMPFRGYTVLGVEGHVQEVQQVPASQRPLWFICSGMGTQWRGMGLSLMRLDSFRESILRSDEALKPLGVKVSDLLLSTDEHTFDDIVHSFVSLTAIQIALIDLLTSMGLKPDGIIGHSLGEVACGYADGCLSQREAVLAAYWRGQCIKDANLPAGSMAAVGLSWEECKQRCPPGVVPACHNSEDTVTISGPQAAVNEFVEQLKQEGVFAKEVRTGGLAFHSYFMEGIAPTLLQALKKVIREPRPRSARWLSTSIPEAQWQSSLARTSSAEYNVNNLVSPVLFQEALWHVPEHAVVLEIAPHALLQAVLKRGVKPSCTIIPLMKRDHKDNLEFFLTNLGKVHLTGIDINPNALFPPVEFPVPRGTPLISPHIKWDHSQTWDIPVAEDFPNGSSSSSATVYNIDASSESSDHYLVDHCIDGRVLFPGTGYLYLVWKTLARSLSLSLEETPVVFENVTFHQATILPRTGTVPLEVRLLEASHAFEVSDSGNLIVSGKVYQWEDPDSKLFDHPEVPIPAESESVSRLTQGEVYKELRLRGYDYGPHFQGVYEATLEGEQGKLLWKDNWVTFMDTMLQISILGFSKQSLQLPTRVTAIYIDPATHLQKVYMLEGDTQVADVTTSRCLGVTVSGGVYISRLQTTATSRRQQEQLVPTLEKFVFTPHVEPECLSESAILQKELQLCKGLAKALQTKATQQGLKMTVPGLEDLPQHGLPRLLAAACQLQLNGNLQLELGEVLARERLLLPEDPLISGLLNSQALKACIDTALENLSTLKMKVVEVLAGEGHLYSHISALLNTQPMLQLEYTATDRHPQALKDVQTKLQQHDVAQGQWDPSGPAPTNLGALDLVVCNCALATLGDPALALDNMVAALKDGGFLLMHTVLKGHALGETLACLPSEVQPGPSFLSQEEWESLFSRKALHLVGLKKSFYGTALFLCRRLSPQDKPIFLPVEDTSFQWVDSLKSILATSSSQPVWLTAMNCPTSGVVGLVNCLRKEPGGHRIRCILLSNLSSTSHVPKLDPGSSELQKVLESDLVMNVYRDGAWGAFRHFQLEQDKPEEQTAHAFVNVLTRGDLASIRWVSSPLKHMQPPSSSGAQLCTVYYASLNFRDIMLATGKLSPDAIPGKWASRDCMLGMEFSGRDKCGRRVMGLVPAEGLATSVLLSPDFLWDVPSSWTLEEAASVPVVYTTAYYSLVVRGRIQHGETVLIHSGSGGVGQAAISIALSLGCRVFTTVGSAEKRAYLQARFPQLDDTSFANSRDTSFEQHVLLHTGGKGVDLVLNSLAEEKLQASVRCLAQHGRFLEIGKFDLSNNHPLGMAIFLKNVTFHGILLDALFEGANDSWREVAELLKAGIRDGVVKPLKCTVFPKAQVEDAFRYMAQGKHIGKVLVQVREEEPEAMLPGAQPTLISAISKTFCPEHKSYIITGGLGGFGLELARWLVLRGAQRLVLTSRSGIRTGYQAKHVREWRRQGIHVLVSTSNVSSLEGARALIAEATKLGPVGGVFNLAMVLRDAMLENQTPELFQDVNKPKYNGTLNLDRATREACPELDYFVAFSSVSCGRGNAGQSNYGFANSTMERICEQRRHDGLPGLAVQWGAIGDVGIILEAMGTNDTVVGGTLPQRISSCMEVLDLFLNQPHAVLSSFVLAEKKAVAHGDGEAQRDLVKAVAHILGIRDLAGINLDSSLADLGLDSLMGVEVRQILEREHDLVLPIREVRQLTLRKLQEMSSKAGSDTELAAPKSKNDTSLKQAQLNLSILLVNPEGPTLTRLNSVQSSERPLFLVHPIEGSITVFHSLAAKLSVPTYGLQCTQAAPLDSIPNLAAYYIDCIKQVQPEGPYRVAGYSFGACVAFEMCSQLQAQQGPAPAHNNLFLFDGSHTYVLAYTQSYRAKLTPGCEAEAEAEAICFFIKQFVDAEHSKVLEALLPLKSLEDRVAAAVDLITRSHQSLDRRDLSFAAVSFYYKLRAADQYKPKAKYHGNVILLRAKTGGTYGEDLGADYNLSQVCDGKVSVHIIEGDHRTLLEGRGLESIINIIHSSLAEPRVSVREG

At Fatty acid synthase, `Cc1ccc(C(=O)N2CCC(c3ccc(C#N)cc3)CC2)cc1NC(=O)c1ccc(N2CCCC2)nc1` came in with an IC50 of 3.97 µM.

Compound `COCCN(C)c1cc2nc(-c3cc(C(=O)N4CCC(c5ccc(C#N)cc5)CC4)c(C)cc3C)[nH]c2cn1` gave a CC50 at 72 h in “in vitro [1]” of over 20 µM. The compound further had an EC50 in the series with Hepatitis C virus of 0.084 µM. In addition, at Fatty acid synthase, it took 0.316 µM to reach half-maximal inhibition (IC50).

As for `Cc1ccc(C(=O)N2CCC(c3ccc(C#N)cc3)CC2)cc1-c1nc2cc(N3CCC3)ncc2[nH]1`, the CC50 at 72 h in “in vitro [1]” is over 20 µM. Moreover, in the series on Hepatitis C virus, the midpoint of the response, the EC50, lay at 0.091 µM.

In turn, `Cc1cc(C)c(-c2nc3cc(S(C)(=O)=O)cnc3[nH]2)cc1C(=O)N1CCC(c2ccc(C#N)cc2)CC1` had a CC50 at 72 h in the series “in vitro [1]” of over 20 µM. Also, the EC50 in the series with Hepatitis C virus was 0.13 µM. For the same compound, at Fatty acid synthase, the IC50 was 3.85 µM.

In turn, `Cc1cc(C)c(-c2nc3nc(N4CCC4)ccc3[nH]2)cc1C(=O)N1CCC(c2ccc(C#N)cc2)CC1` displayed a CC50 at 72 h in the series “in vitro [1]” of over 3 µM. Also, in the series with Hepatitis C virus, the EC50 turned out to be 0.31 µM.

Turning to `Cc1ccc(C(=O)N2CCC(c3ccc(C#N)cc3)CC2)cc1-c1nc2cc(N3CCN(C)CC3)ncc2[nH]1`, the CC50 at 72 h in the series “in vitro [1]” stood at 15 µM. This compound also displayed an EC50 in the series on Hepatitis C virus of 0.83 µM.

In “in vitro [1]”, `Cc1cc(C)c(-c2nc3cc(N4CCOCC4)ncc3[nH]2)cc1C(=O)N1CCC(c2ccc(C#N)cc2)CC1` displayed a CC50 at 72 h of over 3 µM. This compound also came in with a concentration giving a half-maximal response (EC50) with Hepatitis C virus of 0.04 µM.

In the series “in vitro [1]”, `Cc1ccc(C(=O)N2CCC(c3ccc(C#N)cc3)CC2)cc1-c1nc2cc(N3CCCC3)ncc2[nH]1` displayed a CC50 at 72 h of over 20 µM. In the series “in vitro [2]”, this compound gave a half-life of over 10 h. In the series on Hepatitis C virus, this compound had an EC50 of 0.175 µM. For the same compound, in the series “in vitro [3]”, the Papp was found to be 80 nm/s.

Compound `N#Cc1ccc(C2CCN(C(=O)c3cccc(-c4nc5cc(N6CCCC6)ncc5[nH]4)c3)CC2)cc1` gave a CC50 at 72 h in “in vitro [1]” of over 3 µM. The response with Hepatitis C virus was half-maximal at 0.55 µM (EC50). This compound also displayed an IC50 against Fatty acid synthase of 2.95 µM.

For `Cc1cc(C(=O)N2CCC(c3ccc(C#N)cc3)CC2)cc(-c2nc3cc(N4CCCC4)ncc3[nH]2)c1`, the CC50 at 72 h in “in vitro [1]” is over 10 µM. In the series on Hepatitis C virus, this compound displayed a concentration giving a half-maximal response (EC50) of over 10 µM.

Compound `Cc1ccc(-c2nc3cc(N4CCCC4)ncc3[nH]2)cc1C(=O)N1CCC(c2ccc(C#N)cc2)CC1` yielded a CC50 at 72 h in the series “in vitro [1]” of 8.6 µM. Also, a half-maximal response in the series on Hepatitis C virus (EC50) required 0.15 µM.

In the case of `Cc1c(C(=O)N2CCC(c3ccc(C#N)cc3)CC2)cccc1-c1nc2cc(N3CCCC3)ncc2[nH]1`, the CC50 at 72 h in the series “in vitro [1]” was found to be 1.9 µM. Besides, the EC50 in the series with Hepatitis C virus is over 10 µM.

On to `Cc1ccc(C(=O)N2CCC(c3ccc(C#N)cc3)CC2)cc1-c1nc2ccncc2[nH]1`, for which the IC50 in the series with Hepatitis C virus and against Fatty acid synthase was over 50 µM throughout.

In the case of `Cc1ccc(C(=O)N2CCC(c3ccc(C#N)cc3)CC2)cc1-c1nc2ccccc2[nH]1`, the IC50 with Hepatitis C virus and at Fatty acid synthase was over 50 µM throughout.
